One series can be described thus: in vivo. The settings on record: mouse, po.
Series [1] has as its system pain induced by heat contact stimulation. The experiment in a line: Analgesic activity, Eddy's test in mice (hot plate). As to conditions: for ED50 / inhibition in vivo at 400 mg/kg / inhibition in vivo at 200 mg/kg: Mus musculus, po, 0.5 h; for ED50 / ED50 Eddy's test: per os, 30 minutes after administration, heat stimulus; for ED50 Eddy's test: 30 min; for inhibition in vivo at 400 mg/kg: 400 mg/kg per os; for inhibition in vivo at 200 mg/kg: 200 mg/kg per os. It counts as in vivo. The procedure:
(§1) Pain is induced by heat contact stimulation (mice placed on a heating plate kept at 56.5°C) and the time taken to react to the stimulus (licking of the front paws) is measured.
(§2) Batches of 10 animals selected at random are examined 30 minutes after the oral administration of the product to be tested in a gummy suspension.
(§3) The percentage of analgesic activity is established by taking as 100% activity the average response time of the control animals increased by 10 seconds.

Series [2] deals with pain induced by the intraperitoneal injection of acetic acid. Description: Analgesic activity, Koster's test on mice (acetic acid writhing). It counts as in vivo, male mice. The settings on record: for ED50 / inhibition in vivo at 400 mg/kg / inhibition in vivo at 200 mg/kg: Mus musculus, po; for inhibition in vivo at 400 mg/kg: 400 mg/kg per os; for inhibition in vivo at 200 mg/kg: 200 mg/kg per os. The procedure:
(§4) The pain is induced by the intraperitoneal injection of 0.10 ml/10 g of a 3% acetic acid solution.
(§5) The painful crises thus obtained (writhing of the trunk, stretching of the hind legs) are counted for 20 minutes following the injection.
(§6) The product to be tested was administered 30 minutes before the pain had been induced in batches of 10 male mice distributed at random. The percentage of analgesic activity is represented by the percentage decrease in the number of reactions established in relation to the controls.
On the technique in general: In writhing tests, fewer writhes than in controls are read as antinociception.

Series [3] deals with pain (heat stimulus and chemical stimulus). The experiment in a line: Antalgic power compared with amidopyrine (Eddy's and Koster's tests). It counts as in vivo, mice. The settings on record: per os, reference amidopyrine. On the procedure: as §1, §2, §3, §4, §5, §6
For series [4] the following is noted: Table III.
For the next series, the system named is kaolin oedema. The experiment in a line: Anti-oedematous activity, kaolin oedema in rats (Wilhelmi and Domenjoz). It counts as in vivo, male rats. The settings on record: per os; for ED50: Rattus norvegicus, po, paw volume 5 hours after kaolin, read-out: Kaolin oedema test ED50 per os. The procedure: 3. […] ACTIVITY Kaolin oedema in rats in accordance with […] The product to be tested was orally administered to batches of 8 male rats distributed at random 30 minutes before the intraplantar injection of 0.15 ml. of a 10% kaolin suspension. The volume of the paw is measured by plethysmography 5 hours after injection of the irritant. For each rat, the percentage oedema is evaluated in relation to the initial volume. The percentage activity corresponds to the percentage decrease in oedema (average oedema of the treated animals in comparison with the average oedema of the control animals).

Where [5] appears, read: per os, 30 minutes before acetic acid, chemical stimulus.

The term LD50 denotes the dose expected to kill half of the subjects tested. Higher therefore signals lower toxicity. The ED50 is the dose at which the effect has come halfway, by size or by number of responders. The compound `CCC1Oc2ccc(Cl)cc2N(CC(O)CO)C1=O` (stereo not drawn) [Example 2, 2-ethyl-3-oxo-4-(2,3-dihydroxypropyl)-6-chloro-2,3-dihydro-1,4-benzoxazine] displayed an LD50 in “in vivo” of 1660 mg/kg. In series [1], it took a dose of 60 mg/kg to reach the 50% effect level (ED50) and the “ED50 Eddy's test” value worked out at 61 mg/kg. The ED50 in series [2] (setting [5]) stood at 60 mg/kg. Moreover, the “antalgic power relative to amidopyrine” value in series [3] is recorded as “as much as five times the activity of this reference product”.

`CCCC1Oc2ccc(Cl)cc2N(CC(O)CO)C1=O` (stereo not drawn) [Example 9, 2-n-propyl-3-oxo-4-(2,3-dihydroxypropyl)-6-chloro-2,3-dihydro-1,4-benzoxazine] had an LD50 in “in vivo” of more than 1500 mg/kg. Besides, the 50% effective dose (ED50) in series [1] worked out at 100 mg/kg; in series [2] (setting [5]) it was 80 mg/kg.

Broadly, the inhibition in vivo is the percentage by which the read-out fell short of the control. Regarding `CC(=O)OCC(CN1C(=O)C(C)Oc2ccc(Cl)cc21)OC(C)=O` (stereo not drawn) [Example 14, 2-methyl-3-oxo-4-(2,3-diacetoxypropyl)-6-chloro-2,3-dihydro-1,4-benzoxazine], the “DL50 per os in mice” value in series [4] was more than 1500 mg/kg. In addition, the median effective dose (ED50) in the series with kaolin oedema was found to be 400 mg/kg. The compound also gave a 50% lethal dose (LD50) in “in vivo” of more than 1500 mg/kg. In addition, the inhibition in vivo at 400 mg/kg turned out to be 43% in series [1] and 35% in series [2].

In the series “in vivo”, `CCC1Oc2ccccc2N(CC(O)CO)C1=O` (stereo not drawn) [Example 8, 2-ethyl-3-oxo-4-(2,3-dihydroxypropyl)-2,3-dihydro-1,4-benzoxazine] registered an LD50 of 1200 mg/kg. Also, the inhibition in vivo at 200 mg/kg in series [1] is 5%; in series [2] it was 21%.

Take `CC(=O)OCC(CN1C(=O)COc2ccc(Cl)cc21)OC(C)=O` (stereo not drawn) [Example 16, 3-oxo-4-(2,3-diacetoxypropyl)-6-chloro-2,3-dihydro-1,4-benzoxazine]: the “DL50 per os in mice” value in series [4] was more than 1500 mg/kg. In addition, the 50% effective dose (ED50) in the series with kaolin oedema stood at 400 mg/kg. The same compound came in with a median lethal dose (LD50) in the series “in vivo” of more than 1500 mg/kg. For the same compound, the inhibition in vivo at 400 mg/kg in series [1] was found to be 28%; in series [2] it was 51%.

In turn, `CC1Oc2ccc(Cl)cc2N(CC(O)CO)C1=O` (stereo not drawn) [Example 1, 2-methyl-3-oxo-4-(2,3-dihydroxypropyl)-6-chloro-2,3-dihydro-1,4-benzoxazine] displayed a 50% lethal dose (LD50) in “in vivo” of 850 mg/kg. In series [1], the median effective dose (ED50) was 60 mg/kg and the “ED50 Eddy's test” value stood at 63 mg/kg. Further, in series [2] (setting [5]), it took a dose of 60 mg/kg to reach the 50% effect level (ED50) and the “ED50 Koster's test” value came to 57 mg/kg. Besides, the “antalgic power relative to amidopyrine” value in series [3] is reported as “as much as five times the activity of this reference product”.

`CCC1Oc2ccc(Br)cc2N(CC(O)CO)C1=O` (stereo not drawn) [Example 10, 2-ethyl-3-oxo-4-(2,3-dihydroxypropyl)-6-bromo-2,3-dihydro-1,4-benzoxazine] came in with an LD50 in the series “in vivo” of more than 1500 mg/kg. In addition, the ED50 in series [1] came to 200 mg/kg; in series [2] (setting [5]) it was 300 mg/kg.

Turning to `Cc1c(N(C)C)c(=O)n(-c2ccccc2)n1C` [Amidopyrine, amidopyrine, reference compound], the 50% lethal dose (LD50) in the series “in vivo” worked out at 1850 mg/kg. In addition, the values for the ED50 in series [1] and in series [2] (setting [5]) were 300 mg/kg and 120 mg/kg, respectively.

With `COc1ccc2c(c1)N(CC(O)CO)C(=O)C(C)O2` (stereo not drawn) [Example 11, 2-methyl-3-oxo-4-(2,3-dihydroxypropyl)-6-methoxy-2,3-dihydro-1,4-benzoxazine], the “DL50 per os in mice” value in series [4] was more than 1000 mg/kg. Also, the 50% effective dose (ED50) with kaolin oedema came to 200 mg/kg. The 50% lethal dose (LD50) in “in vivo” was more than 1000 mg/kg. Also, the inhibition in vivo at 200 mg/kg in series [1] came out at 16%; in series [2] it was 10%.

`CCCCC1C(=O)N(c2ccccc2)N(c2ccccc2)C1=O` [Phenylbutazone, phenylbutazone, reference compound]: the ED50 in the series on kaolin oedema amounted to 200 mg/kg.

`O=C1COc2ccc(Cl)cc2N1CC(O)CO` (stereo not drawn) [Example 3, 3-oxo-4-(2,3-dihydroxypropyl)-6-chloro-2,3-dihydro-1,4-benzoxazine]: the 50% effective dose (ED50) in the series on kaolin oedema came out at 200 mg/kg; in series [1], 200 mg/kg; in series [2] (setting [5]) it was 100 mg/kg. Also, the “anti-oedematous activity compared with phenylbutazone” value in the series with kaolin oedema (reference phenylbutazone) was “comparable with that of phenylbutazone”. In the series “in vivo”, the median lethal dose (LD50) worked out at 1700 mg/kg.

Regarding `CC1Oc2ccc([N+](=O)[O-])cc2N(CC(O)CO)C1=O` (stereo not drawn) [Example 7, 2-methyl-3-oxo-4-(2,3-dihydroxypropyl)-6-nitro-2,3-dihydro-1,4-benzoxazine], the “DL50 per os in mice” value in series [4] is on record as more than 1000 mg/kg. Moreover, the ED50 with kaolin oedema came out at 400 mg/kg; in series [1], 300 mg/kg; in series [2] (setting [5]), 300 mg/kg. The compound also gave a 50% lethal dose (LD50) in “in vivo” of more than 1000 mg/kg.

The compound `CCCCC1Oc2ccc(Cl)cc2N(CC(O)CO)C1=O` (stereo not drawn) [Example 13, 2-n-butyl-3-oxo-4-(2,3-dihydroxypropyl)-6-chloro-2,3-dihydro-1,4-benzoxazine] had an LD50 in the series “in vivo” of 1500 mg/kg. The median effective dose (ED50) in series [1] and in series [2] (setting [5]) was 100 mg/kg throughout.

As for `CC1Oc2cc(Br)c(Cl)cc2N(CC(O)CO)C1=O` (stereo not drawn) [Example 4, 2-methyl-3-oxo-4-(2,3-dihydroxypropyl)-6-chloro-7-bromo-2,3-dihydro-1,4-benzoxazine], the median lethal dose (LD50) in the series “in vivo” is more than 1500 mg/kg. Besides, the inhibition in vivo at 400 mg/kg in series [1] was determined as 42%; in series [2] it was 68%.

For the compound `Cc1ccc2c(c1)N(CC(O)CO)C(=O)C(C)O2` (stereo not drawn) [Example 5, 2-methyl-3-oxo-4-(2,3-dihydroxypropyl)-6-methyl-2,3-dihydro-1,4-benzoxaine], the median lethal dose (LD50) in the series “in vivo” was more than 1500 mg/kg. In addition, the inhibition in vivo at 400 mg/kg in series [1] was found to be 60%; in series [2] it was 66%.

In “in vivo”, `CCCc1cc(OC)c2c(c1)N(CC(O)CO)C(=O)C(C)O2` (stereo not drawn) [Example 6, 2-methyl-3-oxo-4-(2,3-dihydroxypropyl)-6-n-propyl-8-methoxy-2,3-dihydro-1,4-benzoxazine] showed an LD50 of more than 1500 mg/kg. Besides, the inhibition in vivo at 400 mg/kg was determined as 52% in series [1] and 46% in series [2].

As for `C=CCc1cc(OC)c2c(c1)N(CC(O)CO)C(=O)C(C)O2` (stereo not drawn) [Example 12, 2-methyl-3-oxo-4-(2,3-dihydroxypropyl)-6-allyl-8-methoxy-2,3-dihydro-1,4-benzoxazine], in “in vivo”, the LD50 is more than 1500 mg/kg. For the same compound, the median effective dose (ED50) in series [1] and in series [2] (setting [5]) was 300 mg/kg each time.

`CCC1Oc2ccc(Cl)cc2N(CC(COC(C)=O)OC(C)=O)C1=O` (stereo not drawn) [Example 15, 2-ethyl-3-oxo-4-(2,3-diacetoxypropyl)-6-chloro-2,3-dihydro-1,4-benzoxazine]: the “DL50 per os in mice” value in series [4] is more than 1500 mg/kg. For the same compound, the ED50 with kaolin oedema worked out at 400 mg/kg. The compound also yielded a 50% lethal dose (LD50) in the series “in vivo” of more than 1500 mg/kg. The values for the inhibition in vivo at 200 mg/kg in series [1] and in series [2] were 14% and 20%, respectively.

The record behind these values is patent US3935203A, “Derivatives of 3-oxo-2,3-dihydro-1,4-benzoxazine” (CERPHA, priority 1972, dated 1976).
